These results are taken from patent US9364462B2, “Alpha-1-adrenergic receptor agonist therapy” (The Regents of the University of California, priority 2012, dated 2016).

The structures appear in SMILES notation.

One test deals with cardiac myocytes. In words: Cardiac cell protective and adaptive (anabolic) effects in vitro, comparison of alpha-1-agonists. It counts as cell-based.
The nature of test [1]: Learning and memory, Barnes maze, long-term treatment of normal WT mice. Conditions: 9 months, 10 mg/L in drinking water. It counts as in vivo, mouse. As to the method:
FIG. 18. Long-term alpha-1A agonist therapy improves learning and memory. Normal WT mice were treated 9 months with the alpha-1A agonist cirazoline, 10 mg/L in drinking water, and learning and memory were tested versus control mice using the Barnes maze. Left. […] Right. […] These studies treated mice for long periods with cirazoline, adding it to the drinking water. Mice treated with cirazoline had improvements in tests of learning and of memory (FIG. 18). […] 9 months in a mouse is equivalent to 18 to 27 years in a human.

Take `c1ccc(C2CC2)c(OCC2=NCCN2)c1` [cirazoline]: the “potency and efficacy relative to A61603” value with cardiac myocytes (cardiac myocytes, FIG. 1-2) was “a good bit less potent and efficacious”. Moreover, in the test with cardiac myocytes (cells (e.g. cardiac myocytes)), the “specificity, potency, efficacy in stimulating anabolic effects in cells relative to A61603” value is given as “not as specific, potent, or efficacious as A61603”. In test [1], the “memory trials (errors made)” value is “Findings were similar”. Moreover, in test [1] (vs control mice), the “errors in learning trials” value is on record as “fewer errors” and the “time to solve in learning trials” value was “faster to solve”.
